This note sets out measurements from US20030157670A1 (priority 2002, published 2003).

Assay [1] has as its system capsaicin decomposing/synthesizing enzyme. It counts as biochemical, Streptomyces mobaraensis IFO 13819.
Assay [2] concerns capsaicin decomposing/synthesizing enzyme (purified enzyme). In kind it is biochemical, Streptomyces mobaraensis IFO 13819.
The test system of assay [3] is capsaicin decomposing/synthesizing enzyme (purified enzyme from Streptomyces mobaraensis IFO13819). Nature of the assay: Synthesis of capsaicin analogs from vanillylamine and fatty acids with the enzyme of the invention. It counts as biochemical. Particulars: vanillylamine hydrochloride 10 mM, fatty acid 100 mM, 30 U enzyme, water/n-hexane, 37° C., 8 days, 0.5 mM CoCl2. The procedure:
Next, capsaicin analogs were synthesized by using the capsaicin decomposing/synthesizing enzyme (purified enzyme from Streptomyces mobaraensis IFO13819) according to the present invention.
(§1) The reaction temperature was 37° C.
(§2) As a comparative example, aminoacylase was used. The resulting capsaicin analogs were quantitatively measured by the HPLC analysis of the hexane phases.

Assay [4] concerns aminoacylase. Nature of the assay: Synthesis of capsaicin analogs from vanillylamine and fatty acids with aminoacylase (comparative example). It counts as biochemical. The conditions noted are these: vanillylamine hydrochloride 10 mM, fatty acid 100 mM, water/n-hexane, 37° C., 8 days, 0.5 mM CoCl2. The procedure: as §1, §2

For `[Cl-].[Cl-].[Co+2]` [CoCl2], the “residual activity, cobalt ions added versus not added” value in assay [1] was “higher residual activity”. Also, the “effect on capsaicin hydrolysis activity of the purified enzyme” value in assay [2] is recorded as “enhanced”.

Regarding `CCCCCCCCCCCCCC(=O)O` [Myristic acid], the “Synthesis of capsaicin analogs, Capsaicin decomposing synthesizing enzyme of the invention” value in assay [3] was found to be 0.24 mM.

Turning to `CCCCCCCCCCCC(=O)O` [Lauric acid], the “Synthesis of capsaicin analogs, Aminocylase” value in assay [4] is on record as 0.051 mM. Moreover, the “Synthesis of capsaicin analogs, Capsaicin decomposing synthesizing enzyme of the invention” value in assay [3] came to 1.25 mM.
